{"source": "paper PMC9587031", "about": "“Antibiotic polymyxin arranges lipopolysaccharide into crystalline structures to solidify the bacterial membrane” (Nature Communications, 2022)", "key": {"E. coli MG1655 WT": {"test_system": "E. coli MG1655 WT", "assay": "MIC, automated multi-well growth assay", "assay_type": "cell-based, Escherichia coli", "conditions": "for MIC: MG1655, 10 h", "experimental": "All titration assays to measure the growth curve of E. coli MG1655 strains at different polymyxin concentrations were performed on a Tecan EVO 200 robotic platform in 96-well plates (cell culture microplates 96 well µClear® CELLSTAR®, Greiner Bio-One GmbH). Plates with serial dilutions of the tested polymyxin derivatives were prepared and overnight cultures of the strains were combined to a final OD600 ≈ 0.05. Titration culture plates were placed in a shaking platform equipped with a Kuhner ES-X shaking module (Adolf Kühner AG) mounted inside an aluminum housing (Tecan) and temperature-controlled using an “Icecube” (Life Imaging Services). Titration cultures were grown for 10 h at 37 °C with shaking at 300 rpm in clear-bottom 96-well plates, which were sealed with peelable foil with small slits (Agilent) to prevent liquid evaporation and guarantee sterility. OD600 measurements were recorded using a Tecan Infinite M200 Pro plater reader."}, "[1]": {"test_system": "E. coli K-12 MG1655 empty vector and vector-free controls", "assay": "Colistin MIC, validation of plasmid pAH213_mcr1, controls", "assay_type": "cell-based, Escherichia coli", "excerpt": "(§1) In order to confer colistin resistance to the E. coli K-12 MG1655 strain and derivatives, an mcr-1 gene together with its native promoter region was cloned onto the pBR322 plasmid backbone, creating pAH213_mcr1. Briefly, the mcr-1 gene of colistin-resistant E. coli strain 2 HS-C was identified as gene E4F32_22195 on plasmid p2HS-C-1 (GenBank CP038181.1) and amplified together with ≈ 400 nucleotides of its immediate upstream region using primers prAH2159 and prAH2160. The backbone of pBR322 without its tetracycline resistance cassette was amplified using primers prAH1981 and prAH1982. Using 25 bp overhangs to the backbone included in prAH2159 / prAH2160, insert and backbone were ligated using Gibson assembly. The resulting plasmid pAH213_mcr1 confers colistin resistance to the E. coli K-12 MG1655 strain with a minimal inhibitory concentration of 5 µg/ml (empty vector and vector-free controls: 0.5 µg/ml). Robust growth of the E. coli K-12 MG1655 strains carrying pAH213_mcr1 was observed up to a concentration of 3 µg/ml. The plasmids were transferred to the cells using the transformation and storage solution (TSS) method."}, "[2]": {"test_system": "E. coli K-12 MG1655 carrying pAH213_mcr1", "assay": "Colistin MIC, validation of plasmid pAH213_mcr1", "assay_type": "cell-based, Escherichia coli", "excerpt": "as §1"}, "[3]": {"test_system": "OM patches from E. coli MG1655 WT strain", "assay": "AFM imaging of crystalline structure formation on OM patches", "parameters": "species or system Escherichia coli", "conditions": "DPBS supplemented with 5 mM Mg2+ (MgCl2)", "experimental": "E. coli MG1655 strains were transformed with the pY200 plasmid that carries an mCherry gene preceded by the periplasmic export signal of the skp protein under control of the lux promoter. This construct enables over-expression of mCherry into the periplasmic space, which in turn increases the OMV production. Cultures were grown in LB medium (Difco) with 50 µg/ml spectinomycin (Fischer Scientific) at 37 °C. Expression of mCherry was induced at an OD600 ≈ 0.4 by N-(β ketocaproyl)-L-homoserine lactone (HSL, Cayman Chemical). After induction, the cultures were grown until they reached the early stationary phase, and bacteria were removed by centrifugation at 10,000 g for 10 min. […]\nOMVs produced from different E. coli MG1655 strains were adsorbed onto freshly cleaved mica for 15 min in DPBS buffer at room temperature. […] The images were recorded using two different AFM cantilevers: PEAKFORCE‐HiRs‐F‐A (Bruker) with a nominal spring constant of 0.4 N/m, a resonance frequency of ≈ 165 kHz in liquid, and a sharpened silicon tip with a nominal radius of ≈ 1 nm or SCANASYST-FLUID + (Bruker) with a nominal spring constant of 0.7 N/m, a resonance frequency of ≈ 150 kHz in liquid, and a sharpened silicon tip with a nominal radius of ≈ 2 nm. […] Images were recorded at 2 kHz oscillation frequency, by applying an imaging force of 100–120 pN with a vertical amplitude of 30 nm. […]"}, "E. coli MG1655 MCR-1": {"test_system": "E. coli MG1655 MCR-1", "assay": "MIC, automated multi-well growth assay", "assay_type": "cell-based, Escherichia coli", "conditions": "E. coli MG1655 containing the MCR-1 plasmid, growth curves (Fig. 1b)", "excerpt": "as §1, with “The plasmids were transferred to the cells using the transformation and storage solution (TSS) method.” left out\nAll titration assays to measure the growth curve of E. coli MG1655 strains at different polymyxin concentrations were performed on a Tecan EVO 200 robotic platform in 96-well plates (cell culture microplates 96 well µClear® CELLSTAR®, Greiner Bio-One GmbH). […] OD600 measurements were recorded using a Tecan Infinite M200 Pro plater reader."}}, "note": "Positions of bridges follow the written chain, without caps; N, C: chain ends. Non-standard residues stand in square brackets, D forms with d. Residues, ends and D or L forms follow the SMILES beside them. *: point of attachment. Heptanoyl(6-Me) = CC(C)CCCCC(=O)*; Dab = NCC[C@H](N)C(=O)O"}
{"compound": "CC(C)C[C@@H]1NC(=O)[C@@H](CC(C)C)NC(=O)[C@H](CCN)NC(=O)[C@@H](NC(=O)[C@H](CCN)NC(=O)[C@@H](NC(=O)[C@@H](N)CCN)[C@@H](C)O)CCNC(=O)[C@H]([C@@H](C)O)NC(=O)[C@H](CCN)NC(=O)[C@H](CCN)NC1=O", "note": "[Polymyxin E intermediate-length] (H-[Dab]T[Dab][Dab][Dab][dL]L[Dab][Dab]T; lactam 4-C)", "values": [{"measurement": "MIC", "setting": "E. coli MG1655 WT", "value": 8, "unit": "µg/mL"}]}
{"compound": "CC(C)CCCCC(=O)N[C@@H](CCN)C(=O)N[C@H](C(=O)N[C@@H](CCN)C(=O)N[C@H]1CCNC(=O)[C@@H]([C@H](C)O)NC(=O)[C@H](CCN)NC(=O)[C@H](CCN)NC(=O)[C@H](CC(C)C)NC(=O)[C@@H](CC(C)C)NC(=O)[C@H](CCN)NC1=O)[C@@H](C)O", "note": "[Polymyxin E with stereochemistry change] ({Heptanoyl(6-Me)}-[Dab]T[Dab][Dab][Dab][dL]L[Dab][Dab][dT]; lactam 4-C)", "values": [{"measurement": "MIC", "setting": "E. coli MG1655 WT", "value": 32, "unit": "µg/mL"}]}
{"compound": "Polymyxin E", "values": [{"measurement": "minimal inhibitory concentration", "setting": "[1]", "value": 0.5, "unit": "µg/mL"}, {"measurement": "MIC from bacterial growth curves", "setting": "E. coli MG1655 WT; E. coli K-12 MG1655 WT, growth curves with increasing antibiotic concentration (Fig. 1b)", "value": "0.5 to 1", "unit": "µg/mL"}, {"measurement": "concentration up to which robust growth was observed", "setting": "[2]; E. coli K-12 MG1655 strains carrying pAH213_mcr1", "value": "≤ 3", "unit": "µg/mL"}, {"measurement": "minimal inhibitory concentration", "setting": "[2]; E. coli K-12 MG1655 with plasmid pAH213_mcr1", "value": 5, "unit": "µg/mL"}, {"measurement": "polymyxin E concentration at which crystalline structures formed", "setting": "[3]", "value": 1.2, "unit": "mg/L"}, {"measurement": "polymyxin E concentration in which the strain was able to grow", "setting": "E. coli MG1655 MCR-1", "value": 32, "unit": "mg/L"}]}
